We go through three molecules from patent US12630544B2, “Compound, α-synuclein aggregate binder, and use thereof” (NATIONAL INSTITUTES FOR QUANTUM SCIENCE AND TECHNOLOGY, priority 2020, dated 2026).

Structures are written as SMILES.

For assay [1], the target named is T1, α-synuclein lesion (Mus musculus, UniProt O55042).
T1 construct: from tissue; host or cells: brain of C57/BL/6 mouse inoculated in the striatum with recombinant (E. coli) mouse α-synuclein fibrils; sections or living animal
As to the kind of experiment: In vivo two-photon laser scanning fluorescence microscopy of α-synuclein fibril-inoculated model mouse. Conditions: 50 μl DMSO solution containing 0.1% compound, i.p.; excitation 900 nm. The procedure:
First, mouse α-synuclein was expressed in and extracted from E. coli as a recombinant protein, and then incubated in vitro to form insoluble α-synuclein aggregates. The α-synuclein aggregates were then inoculated into the striatum of a mouse. […] Note that the inoculation of the α-synuclein aggregates into the striatum of the mouse was carried out in the following manner. First, hair on the head of a 9-week-old C57/BL/6 male mouse which had been anesthetized with 1.5% (v/v) isoflurane was removed, and the scalp was disinfected with isodine, followed by application of xylocaine and incision in the scalp to expose the skull. Then, a hole was drilled in the skull at a position of 0.05 mm posterior to the bregma and 2 mm lateral to the midline, and 3 μl of an α-synuclein fibril solution (mouse α-synuclein fibril (4 mg/ml) in saline) was injected into a position […] ventral to the brain surface with use of a glass pipette. The scalp was then returned and sutured.
A model mouse was anesthetized with 1.5% (v/v) isoflurane 6 or more weeks after inoculation of an α-synuclein fibril solution. Then, a cranial window was placed on the model mouse in accordance with the Seylaz-Tomita method (Tomita et al. J Cereb Blood Flow Metab 25, 858-67, 2005). Two or more weeks after the placement of the cranial window, the mouse was anesthetized with 1.5% (v/v) isoflurane, and then 50 μl of a DMSO solution containing 0.1% BF-227, PBB3, SPAL-T-05, or SPAL-T-06 was intraperitoneally administered to the mouse. Thirty minutes after the administration, the mouse was fixed under a two-photon laser fluorescence microscope, 100 μl of physiological saline containing 5 mM Sulforhodamine 101 was intraperitoneally administered to the mouse, and then intravital two-photon fluorescence imaging was carried out at an excitation wavelength of 900 nm. Detection wavelengths for BF-227, PBB3, SPAL-T-05, and SPAL-T-06 were set at 500 nm to 550 nm, and a detection wavelength for Sulforhodamine 101 was set at 573 nm to 648 nm. In FIG. 4, each arrowhead indicates a blood vessel, and each arrow indicates fluorescence from the compound binding to an α-synuclein lesion.

In assay [2] the test system is tau aggregates or amyloid-β aggregates. The assay can be described thus: In vitro fluorescence microscope measurement, middle frontal gyrus sections of AD patient brain. Conditions: 30 μM compound. More on the design: species or system human. The source says:
(§1) Postmortem human brains were obtained in autopsies carried out with respect to a patient with dementia with Lewy bodies (DLB) and a patient with Alzheimer's disease (AD). In a cryostat (HM560, Carl Zeiss), frozen tissue from the DLB patient was sliced into sections each having a thickness of 20 μm. Brain tissue from the AD patient was fixed in 10% neutral buffered formalin, embedded in a paraffin block, and sliced into sections each having a thickness of 6 μm.
Postfixed fresh frozen sections of amygdala tissue obtained from the brain of the DLB patient and deparaffinized sections of formalin-fixed paraffin-embedded middle frontal gyrus tissue obtained from the brain of the AD patient were used. […] After the section was mounted in a mounting medium (VECTASHIELD H-1000, Vector Laboratories), an image of a lesion-enriched area on the section was obtained with use of a fluorescence microscope (DM4000, Leica, excitation wavelength: 391 nm to 437 nm). In FIG. 1, each arrowhead indicates fluorescence from the compound binding to α-synuclein aggregates in the brain of the DLB patient, each arrow indicates fluorescence from the compound binding to amyloid-β aggregates in the brain of the AD patient, and an asterisk indicates fluorescence from the compound binding to tau aggregates in the brain of the AD patient. […]

Assay [3] concerns the target T2, α-synuclein aggregates (Homo sapiens, UniProt P37840). The assay can be described thus: In vitro fluorescence microscope measurement, amygdala sections of DLB patient brain. As to conditions: 30 μM test compound. More on the design: α-synuclein aggregates formed in the brain of the DLB patient; from tissue; host or cells: post-mortem human brain: amygdala of DLB patient (sections or homogenate); cerebellum of MSA patient.
Source text: as §1
Postfixed fresh frozen sections of amygdala tissue obtained from the brain of the DLB patient and deparaffinized sections of formalin-fixed paraffin-embedded middle frontal gyrus tissue obtained from the brain of the AD patient were used. Each brain section and a 30 μM test compound were incubated in a 50% ethanol solution at room temperature for 30 minutes. Thereafter, the section was washed with a 50% ethanol solution for 5 minutes and with ultrapure water for 3 minutes. This washing was carried out twice. After the section was mounted in a mounting medium (VECTASHIELD H-1000, Vector Laboratories), an image of a lesion-enriched area on the section was obtained with use of a fluorescence microscope (DM4000, Leica, excitation wavelength: 391 nm to 437 nm). In FIG. 1, each arrowhead indicates fluorescence from the compound binding to α-synuclein aggregates in the brain of the DLB patient, each arrow indicates fluorescence from the compound binding to amyloid-β aggregates in the brain of the AD patient, and an asterisk indicates fluorescence from the compound binding to tau aggregates in the brain of the AD patient. The fluorescence intensities of lesion-enriched areas and lesion-free areas (background) were quantified with use of analysis software (Image J). Note that SPAL-T-05 and SPAL-T-06 were each used as the test compound. Note also that BF-227 (2-(2-[2-dimethylaminothiazol-5-yl]ethenyl)-6-(2-[fluoro]ethoxy)benzoxazole (catalog No.: NP039-0)) and PBB3 (2-((1E,3E)-4-(6-(methylamino)pyridin-3-yl)buta-1,3-dienyl)benzo[d]thiazol-6-ol) (catalog No.: NP039-0), each available from NARD INSTITUTE, LTD., were each used as a control compound.

Assay [4] deals with T2, α-synuclein aggregates. As to conditions: background statement, cited from earlier work.

In the case of `CNc1ccc(/C=C/C=C/c2nc3ccc(O)cc3s2)cn1` [PBB3, 2-((1E,3E)-4-(6-(methylamino)pyridin-3-yl)buta-1,3-dienyl)benzo[d]thiazol-6-ol, reference compound], the “detection of / binding to α-synuclein lesions in living mouse brain (two-photon fluorescence)” value in assay [1] is “no α-synuclein lesion was detected”.
Regarding `CN(C)c1ncc(C=Cc2nc3ccc(OCCF)cc3o2)s1` [BF-227, 2-(2-[2-dimethylaminothiazol-5-yl]ethenyl)-6-(2-[fluoro]ethoxy)benzoxazole, reference compound], the “binding to aggregates in the brain of the AD patient (fluorescence)” value in assay [2] was “mainly bound to the amyloid-β aggregates”. The “detection of / binding to α-synuclein lesions in living mouse brain (two-photon fluorescence)” value in assay [1] is “no α-synuclein lesion was detected”. Besides, in assay [3] (50% ethanol, room temperature, 30 minutes, amygdala sections), the “binding to α-synuclein aggregates formed in the brain of the DLB patient (fluorescence)” value was “weaker than that of each of SPAL-T-06 and SPAL-T-05”. For the same molecule, the “binding selectivity: α-synuclein aggregates (DLB brain) versus tau aggregates or amyloid-β aggregates (AD brain)” value in assay [3] (fluorescence of lesion-enriched vs lesion-free areas) is reported as “low binding selectivity”.
Regarding `CN(C)c1ncc(C=Cc2nc3ccc(OCCF)cc3o2)s1` [[^11C]BF-227], the “binding selectivity with respect to the α-synuclein aggregates” value in assay [4] (binds to amyloid-β aggregates) is listed as “low binding selectivity”. Moreover, in assay [4], the “binding affinity with respect to the α-synuclein aggregates” value is on record as “insufficient binding affinity”.
